Legend:
[1] = test system: gastrointestinal transit in rats; assay: Gastrointestinal transit (charcoal motility) in rats, alone or before morphine; type: in vivo, rat; conditions: for Mean Motility: ratio of length of charcoal transit/total intestine length, * p<0.05 vs vehicle
Experimental: F. et al J. Pharmacol. Exptl. Therap. 133: 400-408, 1961; D. E. Gmerek, et al J. Pharmacol. Exptl. Ther. 236: 8-13, 1986; and O. Yamamoto et al Neurogastroenterol. Motil. 10: 523-532, 1998.
A control group of rats received 2 mL/kg of a 0.9% saline solution (n=10). After 15 minutes, rats were subcutaneously injected with saline (1 mL/kg) or morphine (3 mg/kg). A 10% suspension of activated charcoal in 0.25% methylcellulose was administered orally at 10 mL/kg to the rats 20 minutes (±2 minutes) after the subcutaneous dose of morphine or saline. The rats were euthanized 25 minutes (±3 minutes) after receiving the charcoal and the intestines were removed and lightly stretched on moist paper along a meterstick. The small intestine from pyloric sphincter to caecum was measured and the distance traveled by the charcoal as a fraction of that length was evaluated for each rat.
Statistically significant effects were determined by ANOVA with Tukey HSD Multiple Comparison Test. Differences with p values <0.05 were considered statistically significant.
Values for charcoal motility were expressed as a percent effect and were calculated in the following manner: The individual distance traveled by the charcoal in centimeters was divided by the total length of the intestines in centimeters (pyloric sphincter to caecum) for each rat. Mean values were calculated for each group, and the percent effect was calculated using the following formula: […]

[2] = molecular target: T1, human μ (mu, MOP) receptor (Homo sapiens, UniProt P35372); assay: cAMP assay in CHO cells expressing human mu receptor, agonist assay; type: cell-based
T1 construct: expressed in transfected cells; host or cells: CHO cells
T1 sequence (P35372 whole entry): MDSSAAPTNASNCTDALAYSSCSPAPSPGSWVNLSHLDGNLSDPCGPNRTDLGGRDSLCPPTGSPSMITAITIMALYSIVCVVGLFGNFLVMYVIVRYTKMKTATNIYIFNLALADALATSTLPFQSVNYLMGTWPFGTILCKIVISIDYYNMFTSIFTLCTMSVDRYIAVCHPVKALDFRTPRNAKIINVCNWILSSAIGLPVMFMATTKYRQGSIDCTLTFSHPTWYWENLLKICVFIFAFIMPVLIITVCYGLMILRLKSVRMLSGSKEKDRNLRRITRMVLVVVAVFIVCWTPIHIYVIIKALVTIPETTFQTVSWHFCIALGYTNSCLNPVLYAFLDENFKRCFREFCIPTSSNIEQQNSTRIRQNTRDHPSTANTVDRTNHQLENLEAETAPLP

[3] = molecular target: μ-opioid receptors in the guinea pig ileum (Cavia porcellus, UniProt A0ACM8Q262); assay: Guinea pig ileum bioassay, test for agonist activity (inhibition of electrically evoked twitch contractions); conditions: mean, n=2; for Response to the compound (decrease in twitch contraction amplitude): percent of control response to DAMGO 1.0E−07 M
Sequence of μ-opioid receptors in the guinea pig ileum (A0ACM8Q262 1-400): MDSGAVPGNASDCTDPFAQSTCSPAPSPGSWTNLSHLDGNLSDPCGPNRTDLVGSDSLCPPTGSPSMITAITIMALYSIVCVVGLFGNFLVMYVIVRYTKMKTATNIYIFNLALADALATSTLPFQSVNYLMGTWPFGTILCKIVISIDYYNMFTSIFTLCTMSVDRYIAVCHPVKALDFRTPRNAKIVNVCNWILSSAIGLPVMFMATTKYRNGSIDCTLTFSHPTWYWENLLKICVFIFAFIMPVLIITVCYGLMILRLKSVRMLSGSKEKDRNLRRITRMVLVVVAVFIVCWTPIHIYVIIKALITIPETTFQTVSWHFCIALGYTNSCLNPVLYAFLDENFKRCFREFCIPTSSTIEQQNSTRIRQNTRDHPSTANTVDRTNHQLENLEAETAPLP
Experimental: Experimental Conditions. Segments of guinea pig terminal ileum were suspended in 20-ml organ baths filled with an oxygenated (95% O2 and 5% CO2) and pre-warmed (37° C.) physiological salt solution of the following composition (in mM): NaCl 118.0, KCl 4.7, MgSO4 1.2, CaCl2 2.5, KH2PO4 1.2, NaHCO3 25.0 and glucose 11.0 (pH 7.4). Additional experimental conditions were as described in Hutchinson et al. (1975) Brit. J. Pharmacol., 55: 541-546.
Indomethacin (1 μM), nor-binaltorphimine (0.01 μM), methysergide (1 μM), ondansetron (10 μM) and GR113808 (0.1 μM) were also present throughout the experiments to prevent prostanoid release and to block the k-opioid, 5-HT2, 5-HT3 and 5-HT4 receptors, respectively. The tissues were connected to force transducers for isometric tension recordings. They were stretched to a resting tension of 1 g then allowed to equilibrate for 60 min during which time they were washed repeatedly and the tension readjusted. Thereafter, they were stimulated electrically with pulses of minimal intensity to trigger maximal contractions and 1 ms duration, delivered at 0.1 Hz by a constant current stimulator.
Test for agonist activity. […] The different concentrations were added cumulatively and each was left in contact with the tissues until a stable response was obtained or for a maximum of 15 min.
Analysis and Expression of Results. The parameter measured was the maximum change in the amplitude of the electrically-evoked twitch contractions induced by each compound concentration.

[4] = 1 mg/kg sc + Morphine 3 mg/kg sc
[5] = 3 mg/kg sc + Morphine 3 mg/kg sc
[6] = 10 mg/kg sc + Morphine 3 mg/kg sc

In the case of C[N+]1(CC2CC2)CC[C@]23c4c5ccc(O)c4O[C@H]2C(=O)CC[C@@]3(O)[C@H]1C5 (stereo partly drawn) [R-MNTX, (R)-N-methylnaltrexone], the “Percent Decrease” value [1, 4] is reported as 24%, the “Mean Motility” value [1, 4] is reported as 0.463* and the “Percent Decrease” value [1, 5] is reported as 8%. The “Mean Motility” value [1, 5] was 0.558, the “Percent Decrease” value [1, 6] was 8% and the “Mean Motility” value [1, 6] was 0.557. The “Percent Decrease” value ([1]; 10 mg/kg sc + Saline) was 6%, the “Mean Motility” value ([1]; 10 mg/kg sc + Saline) was 0.572 and the “effect on GI transit in combination with / prior to morphine” value ([1]; rats, sc, 15 minutes before morphine 3 mg/kg) was “reversed the GI slowing effect of morphine”. The “effect on GI transit when administered alone” value ([1]; rats, sc) was “no effect on GI transit”.
With C[C@@H](NC(=O)[C@@H](N)Cc1ccc(O)cc1)C(=O)NCC(=O)N(C)[C@@H](Cc1ccccc1)C(=O)NCCO [DAMGO, reference compound] the “cAMP agonist assay value (Table IX.1)” value ([2]; log{M} conc −4.0) was −1, the “cAMP agonist assay value (Table IX.1)” value ([2]; log{M} conc −5.0) was 2 and the “cAMP agonist assay value (Table IX.1)” value ([2]; log{M} conc −6.0) was 1. The “cAMP agonist assay value (Table IX.1)” value ([2]; log{M} conc −7.0) was 2, the “cAMP agonist assay value (Table IX.1)” value ([2]; log{M} conc −8.0) was 68 and the “cAMP agonist assay value (Table IX.1)” value ([2]; log{M} conc −9.0) was 63. The “cAMP agonist assay value (Table IX.1)” value ([2]; log{M} conc −10.0) was 88, the “cAMP agonist assay value (Table IX.1)” value ([2]; log{M} conc −11.0) was 105 and the “Response to the compound (decrease in twitch contraction amplitude)” value ([3]; 1.0E−07 M) was 99%. The “Response to the compound (decrease in twitch contraction amplitude)” value ([3]; 1.0E−08 M) was 49%, the “Response to the compound (decrease in twitch contraction amplitude)” value ([3]; 1.0E−09 M) was 12% and the “Response to the compound +naloxone” value ([3]; compound 1.0E−07 M + naloxone 1.0E−07 M, percent of control response to DAMGO) was 3%.
In the case of CN1CC[C@]23c4c5ccc(O)c4O[C@H]2[C@@H](O)C=C[C@H]3[C@H]1C5 [Morphine, morphine], the “Percent Decrease” value ([1]; Saline + Morphine 3 mg/kg sc) is reported as 33%, the “Mean Motility” value ([1]; Saline + Morphine 3 mg/kg sc) is reported as 0.407* and the “effect on GI transit when administered alone” value ([1]; rats, sc) is reported as “decreased GI motility”.

Reference: patent US7563899B2, “(S)-N-methylnaltrexone” (Progenics Pharmaceuticals, Inc., priority 2005, dated 2009)
